Measurements from the supplement of paper PMC7695840.
Where “and” joins values, the source holds several entries; their conditions need not be identical. Identical values can stand only once. Counter-ions that a name gives are not always drawn.

Assays:
[1] = test system: Staphylococcus aureus MW2 (mecA+); assay: IC50 (growth, competition assay); settings: cefoxitin: subinhibitory
In short: (§1)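 Two fluorescent S. aureus MW2 strains, one carrying and one lacking the resistance gene, were pre-induced, mixed 1:1 and grown unshaken in LB in 1536-well plates for 20 h at 37 °C and 90% humidity with a subinhibitory drug dose set each day. Compounds were tested on five- or nine-point 2-fold gradients in two dye-swapped replicates. DsRed (540/590) and GFP (485/520) signals were scaled per plate between the medians of single-strain controls, and No Treatment was then set to 0.5. For each strain, IC50 was taken as the dose that halved the No Treatment signal, or else the maximal signal.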

[2] = test system: Staphylococcus aureus MW2 delta-mecA (mecA-); assay: IC50 (growth, competition assay); settings: cefoxitin: subinhibitory
In short: as §1

Row | Compound | IC50 ([1]; fluorescent label: DsRed) | IC50 ([1]; fluorescent label: GFP) | IC50 ([2]; fluorescent label: DsRed) | IC50 ([2]; fluorescent label: GFP)
1 | CCCCC[C@H](CC(=O)NO)C(=O)N[C@H](C(=O)N1CCC[C@H]1CO)C(C)C [ACTINONIN] | 27.8 µM | 37.7 µM | < 9.85 µM | < 9.85 µM
2 | Cc1onc(-c2ccccc2)c1C(=O)N[C@@H]1C(=O)N2[C@@H]1SC(C)(C)[C@@H]2C(=O)O [BACTOCILL] | < 9.85 µM | < 9.85 µM | < 9.85 µM | < 9.85 µM
3 | Brc1c(Br)c(Br)c2[nH]cnc2c1Br [TBBz] | 12.4 µM | 30.5 µM | 11.7 µM | 11.3 µM
4 | CCCCCCCCCCCCCCCCOP(=O)([O-])OCC[N+](C)(C)C [MILTEX] | 35.2 µM | 33.7 µM | 31.1 µM | 28.1 µM
5 | CC(C)=CCC[C@]1(C)C=Cc2c(O)c3c(c(CC=C(C)C)c2O1)O[C@]12C(=C[C@@H]4C[C@H]1C(C)(C)O[C@@]2(C/C=C(/C)C(=O)O)C4=O)C3=O [GAMBOGIC ACID] | < 9.85 µM | < 9.85 µM | < 9.85 µM | < 9.85 µM
6 | Cc1cc(N)c2ccccc2[n+]1CCCCCCCCCC[n+]1c(C)cc(N)c2ccccc21 [Dequalinium Chloride] | < 9.85 µM | 11.3 µM | < 9.85 µM | < 9.85 µM
7 | Cc1cc(NC2CCCCC2)nc(-n2nc(C)cc2C)n1 [CyPPA] | 40 µM | 107 µM | 18.6 µM | 16.9 µM
8 | N[C@@H](C(=O)N[C@@H]1C(=O)N2C(C(=O)O)=C(Cl)CS[C@H]12)c1ccccc1 [CECLOR] | 87.9 µM | 87.8 µM | < 9.85 µM | < 9.85 µM
9 | CCn1cc(C(=O)O)c(=O)c2ccc(C)nc21 [Nalidixic acid (NegGram)] | 99.9 µM and 57.2 µM | 110 µM and 57.2 µM | 31.2 µM and 18.4 µM | 17.2 µM and 16.7 µM
10 | COc1cccc2c1[C@@H]1CN(CCCCn3c(=O)[nH]c4c(sc5ncc(-c6ccccc6)nc54)c3=O)C[C@@H]1CO2 [Fiduxosin hydrochloride] | 28.5 µM | 29.8 µM | 10.5 µM | 12.6 µM
11 | COc1ccc(NC(=O)c2ccc(-c3ccc(-c4noc(C)n4)cc3C)cc2)cc1N1CCN(C)CC1 | 30.1 µM | 44.9 µM | < 9.85 µM | 12.2 µM
12 | CN[C@@H]1C[C@@H](c2ccc(Cl)c(Cl)c2)c2ccccc21 [Indatraline hydrochloride] | 70.1 µM | 98.4 µM | 36.2 µM | 52.3 µM
13 | CCCCCCCCCCCCCCCC[N+](C)(C)C [CETAB] | < 9.85 µM | < 9.85 µM | < 9.85 µM | < 9.85 µM
14 | CC[C@H]1OC(=O)C[C@@H](O)[C@H](C)[C@@H](O[C@@H]2O[C@H](C)[C@@H](O[C@H]3C[C@@](C)(O)[C@@H](O)[C@H](C)O3)[C@H](N(C)C)[C@H]2O)[C@@H](CC=O)C[C@@H](C)C(=O)/C=C/C(C)=C/[C@@H]1CO[C@@H]1O[C@H](C)[C@@H](O)[C@@H](OC)[C@H]1OC [TYLAN] | < 9.85 µM | < 9.85 µM | < 9.85 µM | < 9.85 µM
15 | O=C(O)c1nn(Cc2ccc(Cl)cc2Cl)c2ccccc12 [Lonidamine] | 27.7 µM | 78.2 µM | 22.4 µM | 15 µM
16 | CCCCCCCCCCCCCCCC[N+](C)(C)CCN(Cc1ccc(OC)cc1)c1ncccn1 [THONZIDE] | < 9.85 µM | 14.9 µM | < 9.85 µM | < 9.85 µM
17 | N#C[C@H](O[C@@H]1O[C@H](CO[C@@H]2O[C@H](CO)[C@@H](O)[C@H](O)[C@H]2O)[C@@H](O)[C@H](O)[C@H]1O)c1ccccc1 [Amygdalin] | 23.8 µM | 28.9 µM | < 9.85 µM | < 9.85 µM
18 | CN1CCN(CCCN2c3ccccc3Sc3ccc(C(F)(F)F)cc32)CC1 [Trifluoperazine 2HCl] | 56.9 µM | 57.1 µM | 16.5 µM | 14.5 µM
19 | Cc1ccc(C(=O)N(CCCN)[C@@H](c2oc3cc(Cl)ccc3c(=O)c2Cc2ccccc2)C(C)C)cc1 | 30.8 µM | 30.6 µM | 5.93 µM | 7.88 µM
20 | CC1(C)S[C@@H]2[C@H](NC(=O)C(C(=O)O)c3ccccc3)C(=O)N2[C@H]1C(=O)O (stereo partly specified) [Carbenicillin disodium] | 20.8 µM | 42.1 µM | < 9.85 µM | < 9.85 µM
21 | Cc1cc2c(C(C)C)c(O)c(O)c(C=O)c2c(O)c1-c1c(C)cc2c(C(C)C)c(O)c(O)c(C=O)c2c1O [GOSSYPOL] | < 9.85 µM | < 9.85 µM | < 9.85 µM | < 9.85 µM
22 | Cc1coc2c1C(=O)C(=O)c1c-2ccc2c(C)cccc12 [Tanshinone I] | 130 µM | > 150 µM | 76.7 µM | 64 µM

Row | Compound | IC50 ([1]; fluorescent label: DsRed) | IC50 ([1]; fluorescent label: GFP) | IC50 ([2]; fluorescent label: DsRed) | IC50 ([2]; fluorescent label: GFP)
23 | CCOC(=O)[C@@H](N)Cc1ccc(-c2cc(O[C@H](c3ccc(Cl)cc3-n3ccc(C)n3)C(F)(F)F)nc(N)n2)cc1 [LX1606 hippurate] | 21.7 µM | 19.2 µM | < 9.85 µM | < 9.85 µM
24 | CCCCCCCCCCCCCCCCC(C(=O)O)C(O)(CC(=O)O)C(=O)O (stereo unspecified) [AGARIC ACID] | 12.8 µM | 20.6 µM | < 9.85 µM | < 9.85 µM
25 | O=C1[C@H](CC[C@H](O)c2ccc(F)cc2)[C@@H](c2ccc(O)cc2)N1c1ccc(F)cc1 [Ezetimibe (Zetia)] | 80.3 µM | 108 µM | 24.9 µM | 14.9 µM
26 | C/C(=C\C(=O)OCCCCCCCCC(=O)O)C[C@@H]1OC[C@H](C[C@@H]2O[C@H]2[C@@H](C)[C@H](C)O)[C@@H](O)[C@H]1O [BACTROBAN] | < 9.85 µM | < 9.85 µM | < 9.85 µM | < 9.85 µM
27 | c1ccc2c(CCNc3ccc(Nc4ccncc4)cc3)c[nH]c2c1 | 104 µM | 138 µM | 61 µM | 37.1 µM
28 | C[C@@H](O[C@H]1OCCN(Cc2n[nH]c(=O)[nH]2)[C@H]1c1ccc(F)cc1)c1cc(C(F)(F)F)cc(C(F)(F)F)c1 [Aprepitant (MK-0869)] | 45 µM | 54.3 µM | 18.9 µM | 17.8 µM
29 | O=C(O)Cc1cc(I)c(Oc2cc(I)c(O)c(I)c2)c(I)c1 [TETRAC] | < 9.85 µM | < 9.85 µM | < 9.85 µM | < 9.85 µM
30 | N[C@@H]1[C@H]2CN(c3nc4c(cc3F)c(=O)c(C(=O)O)cn4-c3ccc(F)cc3F)C[C@@H]12 [Trovafloxacin mesylate] | < 9.85 µM | < 9.85 µM | < 9.85 µM | < 9.85 µM
31 | CCCCCCCCCc1ccc(OCCOCCOCCOCCOCCOCCOCCOCCOCCO)cc1 [CONCEPTROL] | 32 µM | 37 µM | 12.8 µM | < 9.85 µM
32 | C=CC(=O)Nc1cccc(Sc2nc(Nc3ccc(N4CCN(C)CC4)cc3)ncc2Cl)c1 [WZ8040] | 17.1 µM | 28.9 µM | 2.02 µM | 2.67 µM
33 | COc1ccc([C@@H](C)C(=O)c2ccc(O)cc2O)cc1 [ANGOLENSIN (R)] | 22.3 µM | 27.7 µM | < 9.85 µM | < 9.85 µM
34 | CCn1cc(C(=O)O)c(=O)c2cc(F)c(N3CCNC(C)C3)c(F)c21 (stereo unspecified) [Lomefloxacin hydrochloride (Maxaquin)] | 1.76 µM | 1.78 µM | 0.56 µM | < 0.498 µM
35 | CC[C@@H](C(=O)[C@@H](C)[C@@H](O)[C@H](C)[C@@H]1O[C@@H]([C@@H](CC)C(=O)O)CC[C@@H]1C)[C@H]1O[C@]2(C=C[C@@H](O)[C@]3(CC[C@@](C)([C@H]4CC[C@](O)(CC)[C@H](C)O4)O3)O2)[C@H](C)C[C@@H]1C [KOKCISAN] | 31.9 µM | < 9.85 µM | < 9.85 µM | 32.4 µM
36 | CN1C[C@H](CNC(=O)OCc2ccccc2)C[C@@H]2c3cccc4c3c(cn4C)C[C@H]21 [METERGOLINE] | 50.7 µM | 53.6 µM | 16.8 µM | 15.9 µM
37 | O=C1C2CC=CCC2C(=O)N1SC(Cl)(Cl)Cl (stereo unspecified) [CAPTAN] | 15.7 µM | 18 µM | < 9.85 µM | < 9.85 µM
38 | CCN(CC)CCN(Cc1ccc(-c2ccc(C(F)(F)F)cc2)cc1)C(=O)Cn1c(SCc2ccc(F)cc2)nc(=O)c2c1CCC2 | < 9.85 µM | 10.2 µM | < 9.85 µM | < 9.85 µM
39 | COc1ccc(COc2ccc(Cc3cnc(N)nc3N)cc2OC)cc1 [GW2580] | 15.1 µM | 16.2 µM | < 9.85 µM | < 9.85 µM
40 | COC(=O)Nc1nc2cc(C(=O)c3cccs3)ccc2[nH]1 [Nocodazole] | 24.4 µM | 29 µM | < 9.85 µM | < 9.85 µM
41 | CO[C@@H]1[C@@H](OC(N)=O)[C@@H](O)[C@H](Oc2ccc3c(O)c(NC(=O)c4ccc(O)c(CC=C(C)C)c4)c(=O)oc3c2C)OC1(C)C [ALBAMYCIN] | < 9.85 µM | < 9.85 µM | < 9.85 µM | < 9.85 µM
42 | CO[C@@]12[C@H](COC(N)=O)C3=C(C(=O)C(C)=C(N)C3=O)N1C[C@@H]1N[C@@H]12 [MUTAMYCIN] | < 9.85 µM | < 9.85 µM | < 9.85 µM | < 9.85 µM
43 | COc1ncc(-c2ccc3nccc(-c4ccnnc4)c3c2)cc1NS(=O)(=O)c1ccc(F)cc1F | < 9.85 µM | < 9.85 µM | < 9.85 µM | < 9.85 µM
44 | O=C(/C=C/c1ccccc1)c1ccc(O)cc1 [4'-HYDROXYCHALCONE] | 77.3 µM | 101 µM | 19.7 µM | 19.6 µM
